Values of other authors as cited in patent publication US12281304B2, “Compositions and methods for treating and preventing muscular disorders and dystrophies, steroid side effects, and inflammation” (Children's National Medical Center, priority 2018, dated 2025).

Test system: mdx mice
Details: same mdx mice as discovery set; prednisolone 5 mg/kg, vamorolone 15 mg/kg; cited from earlier work

Structure (SMILES)	grip strength, muscle pathology and diaphragm inflammation	steroid side effects (stunted growth, immunosuppression, bone loss)
C[C@@H]1C[C@H]2[C@@H]3CCC4=CC(=O)C=C[C@]4(C)C3=CC[C@]2(C)[C@@]1(O)C(=O)CO [vamorolone]	successfully improved grip strength, muscle pathology, and diaphragm inflammation	successfully avoided these side effects
C[C@]12C=CC(=O)C=C1CC[C@@H]1[C@@H]2[C@@H](O)C[C@@]2(C)[C@H]1CC[C@]2(O)C(=O)CO [prednisolone]	successfully improved grip strength, muscle pathology, and diaphragm inflammation	caused traditional steroid side effects of stunted growth, immunosuppression, and bone loss
